Here are results for nine molecules from patent US10780074B2, “Compounds and uses thereof” (Sunovion Pharmaceuticals Inc., priority 2017, dated 2020).

This assay concerns behaviors of compound-treated mice. Description: Neuropharmacological Assay (SmartCube). The format is in vivo. As to conditions: for minimal effective dose: Mus musculus, ip, 0.25 h, dose having 50% or more total activity in SmartCube, read-out: MED (minimal effective dose). From the text:
Neuropharmacological Assay (SmartCube™)
Neurosci. 2011 Sep. 9; 5:103 (doi: 10.3389/fnins.2011.00103) (“Roberds”). As reported in Roberds, because psychiatric diseases generally result from disorders of cell-cell communication or circuitry, intact systems are useful in detecting improvement in disease-relevant endpoints. These endpoints are typically behavioral in nature, often requiring human observation and interpretation. To facilitate testing of multiple compounds for behavioral effects relevant to psychiatric disease, PsychoGenics, Inc. (Tarrytown, N.Y., “PGI”) developed SmartCube™, an automated system in which behaviors of compound-treated mice are captured by digital video and analyzed with computer algorithms. (D. Brunner et al., Drug Discov. Today 2002, 7:S107-S112). PGI Analytical Systems uses data from SmartCube™ to compare the behavioral signature of a test compound to a database of behavioral signatures obtained using a large set of diverse reference compounds. (The composition of the database as well as validation of the method is further described in Roberds). In this way, the neuropharmacological effects of a test compound can be predicted by similarity to major classes of compounds, such as antipsychotics, anxiolytics and antidepressants.
The SmartCube™ system produces an activity signature indicating the probability that the activity of the test compound at the administered dose matches a given class of neuropharmacological agents. (See, e.g., Roberds, FIGS. 2 and 3). The test compound is simultaneously compared against multiple classes of agents; thus, a separate probability is generated for each behavioral effect measured (e.g., anxiolytic activity, analgesic activity, etc.). In the table below, these probabilities are reported for each behavioral effect measured as follows:
Provided compounds were dissolved in a mixture of Pharmasolve™ (N-methyl-2-pyrrolidone), polyethylene glycol and propylene glycol, and were injected i.p. 15 min. before the behavioral test. For each compound, injections were administered at 3 different doses. For each behavioral effect measured, results for the most efficacious dose(s) are presented. In the table below, DP: anti-depressant; AX: anxiolytic; SD: sedative hypnotic; PS: anti-psychotic; MS: mood stabilizer; AD: ADHD; CE: cognitive enhancer; AG: analgesic; UN: uncharacterized CNS activity.
The potency of many of the compounds in the table was also determined in the SmartCube™ system. Test compounds were routinely examined at dose levels of 0.3, 1, 3 10 and 30 mg per kg (mpk), although the dose range was increased or decreased if necessary to obtain a full dose response curve. A compound's minimal effective dose (MED) is a measure of the compounds potency. The MED was defined as the dose (in mpk) having 50% or more total activity in SmartCube.

[1] abbreviates: i.p. 15 min before behavioral test, most efficacious dose(s) of 3 doses.
The mark [2] stands for this setting: SmartCube, i.p. 15 min before test, most efficacious dose(s).

Where a name gives a salt, the structure may show the parent alone. Read-outs that look alike come from different tables or passages of the source.

In general, minimal effective dose refers to the lowest level tested that produced the effect sought. As for `NC[C@H]1OCCc2c(-c3cnccn3)cccc21` (single isomer, unassigned) [Compound 83, hydrochloride salt], the minimal effective dose (i.p.) fell in the range of 3 to 10 mg/kg. Besides, under setting [1], the “AD: ADHD (probability that activity matches class)” value (shortened to “AD: ADHD”) is given as “++ (5% ≤ ++ <25%)”, the “AG: analgesic (probability that activity matches class)” value (“AG: analgesic” below) is “+ (LOQ ≤ + <5%)”, the “AX: anxiolytic (probability that activity matches class)” value (shortened to “AX: anxiolytic”) is “++ (5% ≤ ++ <25%)” and the “CE: cognitive enhancer (probability that activity matches class)” value (from here on “CE: cognitive enhancer”) was “+ (LOQ ≤ + <5%)”. For the same molecule, under setting [1], the “DP: anti-depressant (probability that activity matches class)” value (“DP: anti-depressant” for short) is recorded as “++++ (50% ≤ ++++)”, the “MS: mood stabilizer (probability that activity matches class)” value (from here on “MS: mood stabilizer”) is given as “+ (LOQ ≤ + <5%)”, the “PS: anti-psychotic (probability that activity matches class)” value (from here on “PS: anti-psychotic”) is recorded as “+ (LOQ ≤ + <5%)” and the “SD: sedative hypnotic (probability that activity matches class)” value (“SD: sedative hypnotic” for short) was “+ (LOQ ≤ + <5%)”. Also, the “UN: uncharacterized CNS activity (probability that activity matches class)” value (“UN: uncharacterized CNS activity” below) under setting [1] is “+ (LOQ ≤ + <5%)”.
`CNC[C@H]1OCCc2c(-c3ncco3)cccc21` [Compound 105, (S)—N-methyl-1-(5-(oxazol-2-yl)isochroman-1-yl)methanamine dihydrochloride]: the minimal effective dose (i.p.) is 3 to 10 mg/kg. Under setting [1], the “AD: ADHD” value is recorded as “+ (LOQ ≤ + <5%)”, the “AG: analgesic” value is recorded as “+ (LOQ ≤ + <5%)”, the “AX: anxiolytic” value is reported as “+ (LOQ ≤ + <5%)” and the “CE: cognitive enhancer” value was “+ (LOQ ≤ + <5%)”. Besides, under setting [1], the “DP: anti-depressant” value was “++++ (50% ≤ ++++)”, the “MS: mood stabilizer” value is listed as “+ (LOQ ≤ + <5%)”, the “PS: anti-psychotic” value is “+ (LOQ ≤ + <5%)” and the “SD: sedative hypnotic” value is “+ (LOQ ≤ + <5%)”. Also, under setting [1], the “UN: uncharacterized CNS activity” value is “++ (5% ≤ ++ <25%)”.
Regarding `CNC[C@@H]1OCCc2c(-c3cnccn3)cccc21` (single isomer, unassigned) [Compound 80], the minimal effective dose (i.p.) lay within 3 to 10 mg/kg. Besides, under setting [1], the “AD: ADHD” value is “+ (LOQ ≤ + <5%)”, the “AG: analgesic” value is “+ (LOQ ≤ + <5%)”, the “AX: anxiolytic” value was “++ (5% ≤ ++ <25%)” and the “CE: cognitive enhancer” value was “+ (LOQ ≤ + <5%)”. In addition, under setting [1], the “DP: anti-depressant” value was “+ (LOQ ≤ + <5%)”, the “MS: mood stabilizer” value is “+ (LOQ ≤ + <5%)”, the “PS: anti-psychotic” value is “+ (LOQ ≤ + <5%)” and the “SD: sedative hypnotic” value is reported as “+ (LOQ ≤ + <5%)”. Under setting [1], the “UN: uncharacterized CNS activity” value was “+ (LOQ ≤ + <5%)”.
Regarding `CNC[C@@H]1OCCc2c(-c3ncccn3)cccc21` [Compound 24, (R)—N-Methyl-1-(5-(pyrimidin-2-yl)isochroman-1-yl)methanamine hydrochloride], under “i.p.”, the minimal effective dose is more than 30 mg/kg. In addition, under setting [1], the “AD: ADHD” value was “+ (LOQ ≤ + <5%)”, the “AG: analgesic” value is “+ (LOQ ≤ + <5%)”, the “AX: anxiolytic” value was “++ (5% ≤ ++ <25%)” and the “CE: cognitive enhancer” value is “+ (LOQ ≤ + <5%)”. Under setting [1], the “DP: anti-depressant” value is on record as “+ (LOQ ≤ + <5%)”, the “MS: mood stabilizer” value was “+ (LOQ ≤ + <5%)”, the “PS: anti-psychotic” value was “+ (LOQ ≤ + <5%)” and the “SD: sedative hypnotic” value is given as “+ (LOQ ≤ + <5%)”. Further, the “UN: uncharacterized CNS activity” value under setting [1] is reported as “++ (5% ≤ ++ <25%)”.
`CNC[C@H]1OCCc2c(-c3cncs3)cccc21` (single isomer, unassigned) [Compound 69, hydrochloride salt]: the minimal effective dose (i.p.) is not above 3 mg/kg. For the same molecule, under setting [1], the “AD: ADHD” value is reported as “+ (LOQ ≤ + <5%)”, the “AG: analgesic” value is “+ (LOQ ≤ + <5%)”, the “AX: anxiolytic” value is on record as “++ (5% ≤ ++ <25%)” and the “CE: cognitive enhancer” value was “+ (LOQ ≤ + <5%)”. Under setting [1], the “DP: anti-depressant” value is given as “++++ (50% ≤ ++++)”, the “MS: mood stabilizer” value is listed as “+ (LOQ ≤ + <5%)”, the “PS: anti-psychotic” value was “+ (LOQ ≤ + <5%)” and the “SD: sedative hypnotic” value is “++ (5% ≤ ++ <25%)”. The “UN: uncharacterized CNS activity” value under setting [1] is on record as “+ (LOQ ≤ + <5%)”.
As to `CNC[C@@H]1OCCc2c(-c3cc(C)nc(C)c3)cccc21` [Compound 124, (R)-1-(5-(2,6-dimethylpyridin-4-yl)isochroman-1-yl)-N-methylmethanamine dihydrochloride], the minimal effective dose (i.p.) is 10 to 30 mg/kg. Under setting [1], the “AD: ADHD” value is “+ (LOQ ≤ + <5%)”, the “AG: analgesic” value is given as “+ (LOQ ≤ + <5%)”, the “AX: anxiolytic” value was “+ (LOQ ≤ + <5%)” and the “CE: cognitive enhancer” value was “+ (LOQ ≤ + <5%)”. Further, under setting [1], the “DP: anti-depressant” value is recorded as “+ (LOQ ≤ + <5%)”, the “MS: mood stabilizer” value is listed as “+ (LOQ ≤ + <5%)”, the “PS: anti-psychotic” value is recorded as “+ (LOQ ≤ + <5%)” and the “SD: sedative hypnotic” value is “+ (LOQ ≤ + <5%)”. In addition, under setting [1], the “UN: uncharacterized CNS activity” value is on record as “+ (LOQ ≤ + <5%)”.
As for `CNC[C@@H]1OCCc2c(-c3ccnc(C)c3)cccc21` (single isomer, unassigned) [Compound 120, hydrochloride salt], where the note is “i.p.”, the minimal effective dose lay in the range of 10 to 30 mg/kg. In addition, under setting [1], the “AD: ADHD” value is “+ (LOQ ≤ + <5%)”, the “AG: analgesic” value is on record as “+ (LOQ ≤ + <5%)”, the “AX: anxiolytic” value is listed as “++ (5% ≤ ++ <25%)” and the “CE: cognitive enhancer” value is “+ (LOQ ≤ + <5%)”. For the same molecule, under setting [1], the “DP: anti-depressant” value is “++ (5% ≤ ++ <25%)”, the “MS: mood stabilizer” value is “+ (LOQ ≤ + <5%)”, the “PS: anti-psychotic” value was “+ (LOQ ≤ + <5%)” and the “SD: sedative hypnotic” value is given as “+ (LOQ ≤ + <5%)”. The “UN: uncharacterized CNS activity” value under setting [1] is “+ (LOQ ≤ + <5%)”.
On to `CNC[C@H]1OCCc2c(-c3cccnc3)cccc21` (single isomer, unassigned) [Compound 8, bis-hydrochloride], for which, under “i.p.”, the minimal effective dose was not above 3 mg/kg. Also, under setting [1], the “AD: ADHD” value is “++ (5% ≤ ++ <25%)”, the “AG: analgesic” value is on record as “+ (LOQ ≤ + <5%)”, the “AX: anxiolytic” value is given as “++ (5% ≤ ++ <25%)” and the “CE: cognitive enhancer” value is “+ (LOQ ≤ + <5%)”. Also, under setting [1], the “DP: anti-depressant” value is reported as “++++ (50% ≤ ++++)”, the “MS: mood stabilizer” value is “+ (LOQ ≤ + <5%)”, the “PS: anti-psychotic” value was “+ (LOQ ≤ + <5%)” and the “SD: sedative hypnotic” value is reported as “+ (LOQ ≤ + <5%)”. For the same molecule, under setting [1], the “UN: uncharacterized CNS activity” value is on record as “+ (LOQ ≤ + <5%)”.
With `NC[C@@H]1OCCc2c1cccc2-n1ccnc1` [Compound 184, (R)-(5-(1H-Imidazol-1-yl)isochroman-1-yl)methanamine hydrochloride salt], the minimal effective dose lay within 10 to 30 mg/kg. Further, under setting [2], the “AD: ADHD” value is reported as “+ (LOQ ≤ + <5%)”, the “AG: analgesic” value is reported as “+ (LOQ ≤ + <5%)”, the “AX: anxiolytic” value is given as “++ (5% ≤ ++ <25%)” and the “CE: cognitive enhancer” value is “+ (LOQ ≤ + <5%)”. For the same molecule, under setting [2], the “DP: anti-depressant” value was “+ (LOQ ≤ + <5%)”, the “MS: mood stabilizer” value was “+ (LOQ ≤ + <5%)”, the “PS: anti-psychotic” value is “+ (LOQ ≤ + <5%)” and the “SD: sedative hypnotic” value is listed as “+ (LOQ ≤ + <5%)”. In addition, under setting [2], the “UN: uncharacterized CNS activity” value was “+ (LOQ ≤ + <5%)”.
